Target: T1, RORα (Homo sapiens, UniProt P35398)
T1 sequence (P35398 272-510 limits assumed): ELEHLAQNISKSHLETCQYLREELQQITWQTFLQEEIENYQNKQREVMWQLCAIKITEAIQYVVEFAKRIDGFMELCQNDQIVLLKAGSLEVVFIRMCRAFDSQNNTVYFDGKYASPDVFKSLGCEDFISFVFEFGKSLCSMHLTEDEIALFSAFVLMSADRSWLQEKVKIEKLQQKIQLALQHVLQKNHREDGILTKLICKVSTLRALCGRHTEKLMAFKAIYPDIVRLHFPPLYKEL
Assay: TR-FRET coactivator recruitment assay on RORα
Type: biochemical
Settings: read-out: RORα: cofactor recruitment IC50; Figure 3B

- IC50: 190 ± 50 nM
SMILES: CC(C)CCC[C@@H](C)[C@H]1CC[C@H]2[C@@H]3CC=C4C[C@@H](OS(=O)(=O)O)CC[C@]4(C)[C@H]3CC[C@]12C [Chol-SO4, sulfated cholesterol]

Reference: publication PMC8023582 (ACS Chemical Biology, 2021)
